Assay results from US8945359B2, “Flavin-binding glucose dehydrogenase” (Ikeda Food Research Co., Ltd., priority 2011, dated 2015).

Key:
[1] = system: Sclerotinia sclerotiorum NBRC103652 flavin-binding glucose dehydrogenase ScGLD (C), purified, wild type; assay: Km value to D-glucose (Hanes-Woolf plot), ScGLD; type: biochemical; settings: D-glucose varied, DCIP/1-m-PMS, pH 6.0, 37° C.
Procedure: After the column was washed with the buffer solution C2, a protein was eluted with linear gradient of a buffer solution D3 (500 mM potassium phosphate buffer solution, pH 7.0) in the buffer solution C2.

[2] = system: Botrytis fabae NBRC7171 flavin-binding glucose dehydrogenase BoGLD (D), purified, wild type; settings: read-out: Km value, D-glucose varied, Hanes-Woolf plot, DCIP/1-m-PMS, pH 6.0, 37° C.
Text: The transmitted active fraction was combined with the active fraction eluted after adsorbed and these fractions were concentrated and dialyzed against the buffer solution C3.

[3] = system: Ovulinia azaleae NBRC6610 flavin-binding glucose dehydrogenase OvGLD (B), purified, wild type, SEQ ID NO: 6 (without signal sequence SEQ ID NO: 14); settings: read-out: Km value, D-glucose varied, Hanes-Woolf plot, DCIP/1-m-PMS, pH 6.0, 37° C.
Procedure: (§1) Each solution was mixed according to the following procedures to measure the absorbance, thereby examining GLD activity.
(§2) Then, 0.05 mL of an enzyme sample was added to the mixture to start a reaction. The amount (ΔA600) of reduction in light absorbance per minute at 600 nm along with the progress of the enzymatic reaction was measured for 5 minutes from the start of the reaction to calculate GLD activity from the straight line part according to the equation 1. At this time, in the measurement of GLD activity, the amount of an enzyme reducing 1 μmol of DCIP at 37° C. and a pH of 6.0 for one minute was defined as 1 U.
(§3) In the above formula, 3.0 represents the amount (mL) of reaction reagent+oxygen solution, 10.8 represents the molar absorption coefficient (mM^−1 cm^−1) of DCIP at a pH of 6.0, 1.0 represents the optical path length (cm) of a cell, 0.05 represents the amount (mL) of the oxygen solution, ΔA600 blank represents a reduction in the amount of light absorbance per minute at 600 nm when the solution used to dilute the enzyme is added in place of the enzyme solution to start a reaction, and df represents a dilution ratio.

[4] = system: Ciborinia camelliae NBRC103663 flavin-binding glucose dehydrogenase CiGLD (F), purified from A. oryzae NS4 with CiGLD-Atsig modified gene, SEQ ID NO: …; settings: read-out: Km value, D-glucose varied, Hanes-Woolf plot, DCIP/1-m-PMS, pH 6.0, 37° C.
Procedure: as §1, §2, §3
Among the eluted protein, an active fraction was concentrated and desalted to obtain a purified enzyme of GLD derived from the genus Ciborinia substituted with water.

OC[C@H]1OC(O)[C@H](O)[C@@H](O)[C@@H]1O (stereo partly drawn) [D-glucose]
Km [1]: 16.7 mM
Km [2]: 35 mM
Km [3]: 22.8 mM
Km [4]: 5.44 mM
